{
  "source": "patent US10842793B2",
  "about": "“Inhibitors of the unconventional secretion of fibroblast growth factor 2 (FGF2) by tumor cells and uses thereof” (Universität Heidelberg, priority 2016, dated 2020)",
  "key": {"[1]": {"target": "T1, Tec kinase mediated tyrosine phosphorylation of FGF2 (GST-NΔ173 Tec) (Homo sapiens, UniProt P42680)", "T1 construct": "made in house; host or cells: Tec: SF9 insect cells (baculovirus); FGF2: E. coli", "T1 sequence (P42680 174-631, stated change not applied)": "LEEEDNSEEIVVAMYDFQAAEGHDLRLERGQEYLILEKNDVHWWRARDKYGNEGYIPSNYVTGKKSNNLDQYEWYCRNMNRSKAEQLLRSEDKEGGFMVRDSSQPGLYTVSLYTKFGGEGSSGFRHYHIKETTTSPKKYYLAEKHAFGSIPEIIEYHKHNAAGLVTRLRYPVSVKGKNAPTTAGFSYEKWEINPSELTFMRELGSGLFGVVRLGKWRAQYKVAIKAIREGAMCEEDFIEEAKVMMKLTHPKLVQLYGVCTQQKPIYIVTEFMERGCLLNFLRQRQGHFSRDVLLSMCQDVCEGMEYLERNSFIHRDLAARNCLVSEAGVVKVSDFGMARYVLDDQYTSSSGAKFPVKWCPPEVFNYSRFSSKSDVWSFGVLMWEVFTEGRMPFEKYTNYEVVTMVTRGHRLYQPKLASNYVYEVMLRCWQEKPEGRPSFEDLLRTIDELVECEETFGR", "assay": "In vitro Tec kinase mediated tyrosine phosphorylation of FGF2", "assay_type": "biochemical", "settings": "50 μM compound in 1% DMSO; FIG. 6C", "experimental": "FGF2 tyrosine phosphorylation and Tec kinase auto-phosphorylation were reconstituted with purified components based on a Western analysis using anti-phosphotyrosine antibodies directed against an FGF2-derived phosphopeptide. In vitro phosphorylation experiments were conducted in the absence (1% DMSO mock control) and presence of the small molecule inhibitors (#6, #14, #21; 50 μM in 1% DMSO) and control compounds (#18, #19; 50 μM in 1% DMSO) introduced in FIGS. 4 and 5. Fluorescent secondary antibodies were used to detect antigens employing the LI-COR Odyssey imaging platform. M=PageRuler Prestained Protein Ladder. For details, see Experimental Procedures.\n(C) Quantification and statistical analysis of 5 independent experiments using the LI-COR Odyssey imaging platform. Following background normalization, the average of FGF2 tyrosine phosphorylation under mock conditions was defined as 100% activity. Standard deviations are shown. […]\nFGF2 and STAP1 tyrosine phosphorylation as well as Tec kinase auto-phosphorylation were analyzed as described in the legend to FIG. 6 and in Experimental Procedures. […] Fluorescent secondary antibodies were used to detect and quantify antigens using the LI-COR Odyssey imaging platform. In panels D, E and F, following normalization based upon background signals detected in the absence of Tec kinase or ATP, the average of the signals detected under mock conditions was defined as 100% activity. […]\n(§1) A Tec kinase in vitro phosphorylation assay was established to test the inhibitory potential and selectivity of the small molecule inhibitors reported in this study (FIGS. 6 and 7). […] Phosphorylation levels of GST-NΔ173 Tec (auto-phosphorylation), FGF2 and STAP1 were quantified by a Western analysis using polyclonal anti-phosphotyrosine antibodies raised against a FGF2-derived synthetic peptide containing a phosphorylated tyrosine residue (ANRpYLAMKED; SEQ ID NO: 1). […] Phosphorylation levels of STAP1 were monitored using a monoclonal anti-phosphotyrosine antibody (clone 4G10®, #05-321, Merck Millipore). […]"}, "[2]": {"target": "T2, Tec kinase mediated tyrosine phosphorylation of STAP1 (Homo sapiens, UniProt P42680)", "T2 construct": "made in house; host or cells: Tec: SF9 insect cells (baculovirus); STAP1 purchased (Hölzel Diagnostika, Cat. # GWB-P0486E-100)", "T2 sequence (P42680 174-631)": "as the sequence (P42680 174-631, stated change not applied) above", "assay": "In vitro Tec kinase mediated tyrosine phosphorylation of STAP1", "assay_type": "biochemical", "settings": "50 μM compound; FIGS. 7C and F", "experimental": "FGF2 and STAP1 tyrosine phosphorylation as well as Tec kinase auto-phosphorylation were analyzed as described in the legend to FIG. 6 and in Experimental Procedures. In vitro phosphorylation experiments were conducted in the absence (1% DMSO mock control) and presence of the small molecule inhibitors (#6, #14, #21; 50 μM in 1% DMSO) and control compounds (#18, #19; 50 μM in 1% DMSO) introduced in FIGS. 4 and 5. A Western analysis was conducted using anti-phosphotyrosine antibodies (anti-pY-FGF2 for FGF2 and Tec as well as anti-pY-4G10 for STAP1). M=PageRuler Prestained Protein Ladder: 140, 115, 80, 65, 50, 40, 30, 25, 15, 10 kDa. Fluorescent secondary antibodies were used to detect and quantify antigens using the LI-COR Odyssey imaging platform. In panels D, E and F, following normalization based upon background signals detected in the absence of Tec kinase or ATP, the average of the signals detected under mock conditions was defined as 100% activity. Standard deviations are shown. A one-tailed and unpaired T-test was conducted to assess statistical significance (* p<0.05, ** p<0.01, *** p<0.001, **** p<0.0001). “NS” indicates absence of significant differences.\nas §1, with “Millipore). Appropriate fluorescent secondary antibodies (goat anti-rabbit IgG conjugated with Alexa Fluor® 680, # A-21076, Life Technologies; goat anti-mouse IgG conjugated with Alexa Fluor® 680, # A-21057, Life Technologies) were used to quantify all antigens employing the LI-COR Odyssey infrared imaging platform.” for “Millipore).”"}},
  "data": [
    {"smiles": "COC(=O)c1c(C)[nH]c(C(=O)OCc2cc(=O)n3c(C)cccc3n2)c1C", "note": "[compound #6]", "values": [
      {"measurement": "inhibition at 50 µM", "setting": "[1]", "result": "~75", "unit": "%"},
      {"measurement": "effect on tyrosine phosphorylation of STAP1", "setting": "[2]", "result": "neither auto-phosphorylation of NΔ173 Tec nor tyrosine phosphorylation of STAP1 is affected"}
    ]},
    {"smiles": "CC(=O)c1c(C)[nH]c(C(=O)CSc2nc3cc(Cl)cnc3[nH]2)c1C", "note": "[compound #21]", "values": [
      {"measurement": "inhibition of FGF2 tyrosine phosphorylation", "setting": "[1]", "result": "almost quantitative inhibition"},
      {"measurement": "effect on tyrosine phosphorylation of STAP1", "setting": "[2]", "result": "neither auto-phosphorylation of NΔ173 Tec nor tyrosine phosphorylation of STAP1 is affected"}
    ]},
    {"smiles": "CC(=O)c1c(C)[nH]c(C(=O)OCc2cc(=O)n3cc(Br)ccc3n2)c1C", "note": "[compound #14]", "values": [
      {"measurement": "inhibition of FGF2 tyrosine phosphorylation", "setting": "[1]", "result": "almost quantitative inhibition"},
      {"measurement": "effect on tyrosine phosphorylation of STAP1", "setting": "[2]", "result": "neither auto-phosphorylation of NΔ173 Tec nor tyrosine phosphorylation of STAP1 is affected"}
    ]}
  ]
}
